Measurements published in ChEMBL document CHEMBL3632488, “Discovery of potent and selective cytotoxic activity of new quinazoline-ureas against TMZ-resistant glioblastoma multiforme (GBM)” (Eur J Med Chem, 2015).
Calls of active or inactive are those of the source. No cut-off for these calls is given here.

Assays:
[1] = Antiproliferative activity against human GBM2 cells assessed as reduction in cell viability at 10 uM incubated for 72 hrs by WST-1 method; assay type: functional; details: GBM2, 72 h
[2] = Antiproliferative activity against human GBM1 cells assessed as reduction in cell viability at 10 uM incubated for 72 hrs by WST-1 method; assay type: functional; details: GBM1, 72 h
[3] = Selectivity index, ratio of IC50 for normal human astrocytes to IC50 for human GBM3 cells
[4] = Selectivity index, ratio of IC50 for normal human astrocytes to IC50 for human GBM1 cells
[5] = Antiproliferative activity against human GBM3 cells assessed as reduction in cell viability at 10 uM incubated for 72 hrs by WST-1 method; assay type: functional; details: GBM3, 72 h
[6] = Antiproliferative activity against human GBM3 cells assessed as reduction in cell viability incubated for 72 hrs by WST-1 method; assay type: functional, cell-based; details: GBM3, 72 h
[7] = Selectivity index, ratio of IC50 for normal human astrocytes to IC50 for human GBM2 cells
[8] = Cytotoxicity against normal human astrocytes assessed as cell viability incubated for 72 hrs by WST-1 method; assay type: cell-based; details: Astrocyte
[9] = Antiproliferative activity against human GBM2 cells assessed as reduction in cell viability incubated for 72 hrs by WST-1 method; assay type: functional, cell-based; details: GBM2, 72 h
[10] = Antiproliferative activity against human GBM1 cells assessed as reduction in cell viability incubated for 72 hrs by WST-1 method; assay type: functional, cell-based; details: GBM1, 72 h
[11] = tested on: GBM1; test: Induction of apoptosis in human GBM1 cells assessed as loss of mitochondrial membrane potential at 10 uM after 2 hrs by JC-1 staining based fluorescence microscopy; assay type: functional, cell-based
[12] = biological target: Translocator protein (Rattus norvegicus) (UniProt P16257); test: Displacement of [3H]PK11195 from TSPO receptor in Sprague-Dawley rat cerebral cortex membrane at 1 uM by radiometric competitive assay; assay type: tissue-based
[13] = biological target: Translocator protein (Rattus norvegicus) (UniProt P16257); test: Displacement of [3H]PK11195 from TSPO receptor in Sprague-Dawley rat cerebral cortex membrane at 10 uM by radiometric competitive assay; assay type: tissue-based
[14] = biological target: Translocator protein (Rattus norvegicus) (UniProt P16257); test: Displacement of [3H]PK11195 from TSPO receptor in Sprague-Dawley rat cerebral cortex membrane at 100 nM by radiometric competitive assay; assay type: tissue-based
[15] = biological target: Translocator protein (Rattus norvegicus) (UniProt P16257); test: Displacement of [3H]PK11195 from TSPO receptor in Sprague-Dawley rat cerebral cortex membrane at 1 nM by radiometric competitive assay; assay type: tissue-based
[16] = biological target: Translocator protein (Rattus norvegicus) (UniProt P16257); test: Displacement of [3H]PK11195 from TSPO receptor in Sprague-Dawley rat cerebral cortex membrane at 10 nM by radiometric competitive assay; assay type: tissue-based

| Compound | inhibition at 10 µM [1] [%] | inhibition at 10 µM [2] [%] | Ratio IC50 [3] | Ratio IC50 [4] | inhibition at 10 µM [5] [%] | IC50 [6] [µM] | Ratio IC50 [7] | IC50 [8] [µM] | IC50 [9] [µM] | IC50 [10] [µM] | Activity [11] | inhibition [12] [%] | inhibition [13] [%] | inhibition [14] [%] | inhibition [15] [%] | inhibition [16] [%] |
| --- | --- | --- | --- | --- | --- | --- | --- | --- | --- | --- | --- | --- | --- | --- | --- | --- |
| O=C(Nc1ccc(C(F)(F)F)cc1)Nc1cc2ncncc2cc1OCc1cccc(F)c1 | 99.5 | 76.2 | 2 | 2 | 95.4 | 6.3 | 2 | 8.9 | 3.2 | 3.8 |  |  |  |  |  |  |
| N#CC(C#N)=NNc1cccc(Cl)c1 |  |  |  |  |  |  |  |  |  |  | Active |  |  |  |  |  |
| O=C(Nc1cc2ncncc2cc1OCc1ccc(F)cc1)Nc1cccc2ccccc12 | 99 | 99.3 | 1.2 | 1.2 | 94.4 | 8.3 | 1.2 | 8.5 | 4.5 | 8.1 |  |  |  |  |  |  |
| COc1cc([C@@H]2c3cc4c(cc3[C@@H](O[C@@H]3O[C@@H]5CO[C@@H](C)O[C@H]5[C@H](O)[C@H]3O)[C@H]3COC(=O)[C@H]23)OCO4)cc(OC)c1O [ETOPOSIDE] | 88.2 | 53.5 |  |  | 22.1 | > 10 |  | > 10 | 1.1 | > 10 |  |  |  |  |  |  |
| O=C(Nc1cccc(Cl)c1)Nc1cc2ncncc2cc1OCc1cccc(Cl)c1 | 98.2 | 85 | >2.9 | >2.9 | 100 | 3.5 | >2.9 | > 10 | 3.5 | 3.3 |  |  |  |  |  |  |
| CC/C(=C(\c1ccccc1)c1ccc(OCCN(C)C)cc1)c1ccccc1 [TAMOXIFEN] | 101 | 98.4 | >2.1 | >2.1 | 95.7 | 4.7 | >2.1 | > 10 | 3.5 | 7.5 |  |  |  |  |  |  |
| O=C(Nc1ccccc1F)Nc1cc2ncncc2cc1OCc1ccccc1 | 83.7 | 72 | >1.8 | >1.8 | 75.5 | 5.9 | >1.8 | > 10 | 4.5 | 6.1 |  |  |  |  |  |  |
| O=C(Nc1cccc(F)c1)Nc1cc2ncncc2cc1OCc1cccc(Cl)c1 | 76.3 | 73.2 | >1.5 | >1.5 | 54.5 | 8.3 | >1.5 | > 10 | 7.8 | 3.7 |  |  |  |  |  |  |
| O=C(Nc1cc2ncncc2cc1OCc1ccccc1Cl)Nc1cccc2ccccc12 | 98.1 | 97.3 | 1 | 1 | 100 | 2.7 | 1 | 2.3 | 2.9 | 2.9 |  |  |  |  |  |  |
| O=C(Nc1ccc(C(F)(F)F)cc1)Nc1cc2ncncc2cc1OCc1ccccc1 | 95.2 | 92.2 | 1.5 | 1.5 | 99.1 | 3.7 | 1.5 | 9.2 | 8.6 | 5.7 |  |  |  |  |  |  |
| O=C(Nc1ccccc1F)Nc1cc2ncncc2cc1OCc1cccc(F)c1 | 74.5 | 63 | >1.3 | >1.3 | 61.4 | 8.1 | >1.3 | > 10 | 6.4 | 8 |  |  |  |  |  |  |
| CCc1c2c(nc3ccc(OC(=O)N4CCC(N5CCCCC5)CC4)cc13)-c1cc3c(c(=O)n1C2)COC(=O)[C@]3(O)CC | 91.8 | 34.1 |  |  | 54.1 | 5 |  | > 10 | 2.4 | > 10 |  |  |  |  |  |  |
| O=C(Nc1ccccc1F)Nc1cc2ncncc2cc1OCc1cccc(Cl)c1 | 82.3 | 73 | 1.6 | 1.6 | 58.8 | 7.5 | 1.6 | 8.7 | 4.4 | 4.2 |  |  |  |  |  |  |
| O=C(Nc1ccc(Cl)c(Cl)c1)Nc1cc2ncncc2cc1OCc1ccccc1F | 87.6 | 84.4 |  |  | 50.2 | > 10 |  | 3.9 | 6 | 4.1 |  |  |  |  |  |  |
| O=C(Nc1cccc(Cl)c1)Nc1cc2ncncc2cc1OCc1ccccc1 | 97.3 | 79.1 | 1.4 | 1.4 | 74.8 | 6.4 | 1.4 | 7.4 | 4.1 | 5.7 |  |  |  |  |  |  |
| O=C(Nc1ccc(C(F)(F)F)cc1)Nc1cc2ncncc2cc1OCc1cccc(Cl)c1 | 94.6 | 75.7 | 2 | 2 | 90.1 | 5.1 | 2 | 8.8 | 4.7 | 3.4 |  |  |  |  |  |  |
| O=C(Nc1ccccc1F)Nc1cc2ncncc2cc1OCc1ccccc1F | 92.4 | 80.7 | 2.6 | 2.6 | 94.6 | 3.8 | 2.6 | 10 | 3.6 | 4.2 |  |  |  |  |  |  |
| O=C(Nc1cc2ncncc2cc1OCc1ccc(Cl)cc1)Nc1cccc2ccccc12 | 98.5 | 97.1 | >1.5 | >1.5 | 98.8 | 7.7 | >1.5 | > 10 | 4.5 | 7.9 |  |  |  |  |  |  |
| O=C(Nc1cccc(F)c1)Nc1cc2ncncc2cc1OCc1ccccc1Cl | 102 | 97.7 | 2.9 | 2.9 | 102 | 2.4 | 2.9 | 9.4 | 3.2 | 4 |  |  |  |  |  |  |
| CN1C(=O)CN=C(c2ccccc2)c2cc(Cl)ccc21 |  |  |  |  |  |  |  |  |  |  |  | 85 | 97 | 34 | 0 | 2 |
| CC[C@@]1(O)C(=O)OCc2c1cc1n(c2=O)Cc2cc3c(CN(C)C)c(O)ccc3nc2-1 [TOPOTECAN] | 97.8 | 88.7 | 0.5 | 0.5 | 88.7 | 0.38 | 0.5 | 0.16 | 0.13 | 0.46 |  |  |  |  |  |  |
